Results as given in ChEMBL document CHEMBL1201862, “PubChem BioAssay data set” (2004).
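Results reflect a 48-hour exposure of cells in 96-well plates to compound at five concentrations. Here, GI50 denotes the concentration required for 50% inhibition of growth.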 Active and inactive are the calls of the source. Rule as the data show it: active = GI50 up to about 1.1 µM and inactive = higher.

How the values were obtained:
Assay in all cases: inhibition of tumour cell growth, NCI panel, 48 h
A549 = test system: A549
COLO 205 = test system: COLO 205
HCT-116 = test system: HCT-116
HCT-15 = test system: HCT-15
HT-29 = test system: HT-29
KM12 = test system: KM12
M14 = test system: M14
MCF7 = test system: MCF7
NCI-H460 = test system: NCI-H460
NCI-H522 = test system: NCI-H522
NCI/ADR-RES = test system: NCI/ADR-RES
OVCAR-3 = test system: OVCAR-3
SF-295 = test system: SF-295
SK-MEL-28 = test system: SK-MEL-28
SK-MEL-5 = test system: SK-MEL-5
UACC-257 = test system: UACC-257
CAKI-1 = test system: CAKI-1
HOP-92 = test system: HOP-92
NCI-H226 = test system: NCI-H226
RXF 393 = test system: RXF 393

| Structure (SMILES) | GI50 (A549) | GI50 (COLO 205) | GI50 (HCT-116) | GI50 (HCT-15) [µM] | GI50 (HT-29) | GI50 (KM12) | GI50 (M14) | GI50 (MCF7) | GI50 (NCI-H460) | GI50 (NCI-H522) | GI50 (NCI/ADR-RES) | GI50 (OVCAR-3) | GI50 (SF-295) | GI50 (SK-MEL-28) | GI50 (SK-MEL-5) | GI50 (UACC-257) | GI50 (CAKI-1) | GI50 (HOP-92) | GI50 (NCI-H226) | GI50 (RXF 393) |
| --- | --- | --- | --- | --- | --- | --- | --- | --- | --- | --- | --- | --- | --- | --- | --- | --- | --- | --- | --- | --- |
| O=C1C(NCCc2cc(Cl)c(O)c(Cl)c2)=CC(=O)c2[nH]cnc21 | 33.9 µM (inactive) | 21.2 µM (inactive) | 27.1 µM (inactive) | 39.1 | 40.4 µM (inactive) | 35.5 µM (inactive) | 10.7 µM (inactive) | 26.9 µM (inactive) | 26.5 µM (inactive) | 12.8 µM (inactive) | > 100 µM (inactive) | 17.7 µM (inactive) | 18 µM (inactive) | 28 µM (inactive) | 17.3 µM (inactive) | 26 µM (inactive) |  |  |  |  |
| CCCC(=O)Nc1ccc2c(c1)CN1C(=O)c3ccccc3C1=N2 | > 100 µM (inactive) | > 100 µM (inactive) | > 100 µM (inactive) | > 100 | > 100 µM (inactive) | > 100 µM (inactive) | > 100 µM (inactive) | > 100 µM (inactive) | > 100 µM (inactive) | > 100 µM (inactive) | > 100 µM (inactive) | > 100 µM (inactive) | 69.5 µM (inactive) | > 100 µM (inactive) | > 100 µM (inactive) | > 100 µM (inactive) | > 100 µM (inactive) | > 100 µM (inactive) | > 100 µM (inactive) |  |
| COc1ccc(N2C(=O)C3ON(C(C(N)=O)c4ccccc4)C(c4ccc(-c5ccccc5)cc4)C3C2=O)cc1 (stereo unspecified) | > 50 µM (inactive) | 25.2 µM (inactive) | > 50 µM (inactive) | > 50 | 24.8 µM (inactive) | > 50 µM (inactive) | 48.4 µM (inactive) | 31.3 µM (inactive) | > 50 µM (inactive) | 48.3 µM (inactive) | > 50 µM (inactive) | > 50 µM (inactive) | > 50 µM (inactive) | > 50 µM (inactive) |  | > 50 µM (inactive) | > 50 µM (inactive) |  | > 50 µM (inactive) | > 50 µM (inactive) |
| Cc1ccc(S(=O)(=O)c2ccsc2NC(=O)C(F)(F)F)cc1 | 34 µM (inactive) | 10.8 µM (inactive) | 28.6 µM (inactive) | 34.9 | 35.8 µM (inactive) | 31.1 µM (inactive) | 43.4 µM (inactive) | 44.8 µM (inactive) | 27.3 µM (inactive) | 24.4 µM (inactive) | 31.7 µM (inactive) | 42.6 µM (inactive) | 37.8 µM (inactive) | 93.5 µM (inactive) | 20.2 µM (inactive) | 30.3 µM (inactive) | 34.9 µM (inactive) | 30.9 µM (inactive) | 39.7 µM (inactive) |  |
| Cc1cc2c3ccccc3[nH]c2c2ccnc(C)c12 | 8.28 µM (inactive) | 1.94 µM (inactive) | 2.21 µM (inactive) | 2.34 | 3.55 µM (inactive) | 10.6 µM (inactive) | 1.84 µM (inactive) | 27.9 µM (inactive) | 2.35 µM (inactive) | 2.65 µM (inactive) | 14.7 µM (inactive) | 10.3 µM (inactive) | 20 µM (inactive) | 1.77 µM (inactive) | 4.78 µM (inactive) | 18.2 µM (inactive) | 19 µM (inactive) | 5.11 µM (inactive) | 13.4 µM (inactive) |  |
| CCCCCCCC(CC(=O)O)OC(=O)CC(CCCCCCC)OC1OC(C)C(O)C(O)C1OC1OC(C)C(O)C(O)C1O (stereo unspecified) | > 100 µM (inactive) | > 100 µM (inactive) | > 100 µM (inactive) | > 100 | > 100 µM (inactive) | > 100 µM (inactive) | > 100 µM (inactive) | > 100 µM (inactive) | > 100 µM (inactive) | > 100 µM (inactive) | > 100 µM (inactive) | > 100 µM (inactive) | > 100 µM (inactive) | 44.6 µM (inactive) | > 100 µM (inactive) | > 100 µM (inactive) | > 100 µM (inactive) | > 100 µM (inactive) | > 100 µM (inactive) |  |
| NCCNC(=O)CN(CC(=O)O)C1CCCCC1N(CC(=O)O)CC(=O)O (stereo unspecified) | > 100 µM (inactive) | > 100 µM (inactive) | > 100 µM (inactive) | > 100 | > 100 µM (inactive) | > 100 µM (inactive) | > 100 µM (inactive) | > 100 µM (inactive) | > 100 µM (inactive) | > 100 µM (inactive) | > 100 µM (inactive) | > 100 µM (inactive) | > 100 µM (inactive) | > 100 µM (inactive) | > 100 µM (inactive) | > 100 µM (inactive) | > 100 µM (inactive) | 11.7 µM (inactive) | > 100 µM (inactive) |  |
| NC1C/C(=N\O)c2c(Cl)sc(Cl)c21 (stereo unspecified) | 29.3 µM (inactive) | 25.4 µM (inactive) | 3.96 µM (inactive) | 15.6 | 23.1 µM (inactive) | 12 µM (inactive) | 16.8 µM (inactive) | 11 µM (inactive) | 20.4 µM (inactive) |  | 25.6 µM (inactive) | 17.3 µM (inactive) | 28.1 µM (inactive) | 19.3 µM (inactive) |  | 17.1 µM (inactive) | 18 µM (inactive) | 22.9 µM (inactive) | 21.9 µM (inactive) |  |
| COc1cc2oc(=O)ccc2cc1C(=O)CC(C)C | > 100 µM (inactive) | > 100 µM (inactive) | > 100 µM (inactive) | > 100 | > 100 µM (inactive) | > 100 µM (inactive) | > 100 µM (inactive) | 73.8 µM (inactive) | 62.5 µM (inactive) | 23.6 µM (inactive) | 66.4 µM (inactive) | > 100 µM (inactive) | > 100 µM (inactive) | > 100 µM (inactive) | > 100 µM (inactive) | > 100 µM (inactive) | 22.9 µM (inactive) | > 100 µM (inactive) | 28.6 µM (inactive) |  |
| N#CCCC(CC#N)N1CCN(C(CC#N)CCC#N)CC1 (stereo unspecified) | > 100 µM (inactive) | > 100 µM (inactive) | > 100 µM (inactive) | > 100 | > 100 µM (inactive) |  | > 100 µM (inactive) | > 100 µM (inactive) | > 100 µM (inactive) | > 100 µM (inactive) | > 100 µM (inactive) | > 100 µM (inactive) | > 100 µM (inactive) | > 100 µM (inactive) | > 100 µM (inactive) | > 100 µM (inactive) | > 100 µM (inactive) |  | > 100 µM (inactive) | > 100 µM (inactive) |
| CCC(C)C1(O)OC2CC3(C)OC(=CC3=O)/C(C)=C\C3OC(=O)C1(C)C32 (stereo unspecified) | 24.8 µM (inactive) | 8.93 µM (inactive) | 6.47 µM (inactive) | 3.3 | 14.2 µM (inactive) | 10.6 µM (inactive) | 21.1 µM (inactive) | 9.77 µM (inactive) | 14.2 µM (inactive) | 3.92 µM (inactive) | 17.2 µM (inactive) | 10.4 µM (inactive) | 20.5 µM (inactive) | 14.3 µM (inactive) | 10.5 µM (inactive) | 7.01 µM (inactive) | 14.4 µM (inactive) | 8.75 µM (inactive) | 25.9 µM (inactive) |  |
| O=C1N(CN2CCOCC2)CN(CN2CCOCC2)C(=O)N1Cc1ccc(CN2C(=O)N(CN3CCOCC3)CN(CN3CCOCC3)C2=O)cc1 | 40.2 µM (inactive) | 43 µM (inactive) | 33.6 µM (inactive) | 31.2 | 42 µM (inactive) | 48.1 µM (inactive) | 28.2 µM (inactive) | 38.9 µM (inactive) | 36.9 µM (inactive) | > 100 µM (inactive) | 49.9 µM (inactive) | 31.6 µM (inactive) | > 100 µM (inactive) | 31.3 µM (inactive) | > 100 µM (inactive) | 52.2 µM (inactive) | 38.3 µM (inactive) | 52 µM (inactive) | > 100 µM (inactive) |  |
| CCC(C)(C)c1ccc(OCCCCNC(=O)c2ccc3ccccc3c2O)c(C(C)(C)CC)c1 | 27.2 µM (inactive) | 14.2 µM (inactive) | 17.6 µM (inactive) | 0.425 | 44.7 µM (inactive) | 44.8 µM (inactive) | 48.9 µM (inactive) | 28.3 µM (inactive) | 23.1 µM (inactive) | 14.6 µM (inactive) | 25.4 µM (inactive) | 19.4 µM (inactive) | 48.3 µM (inactive) | 13.6 µM (inactive) | 19.3 µM (inactive) | 28 µM (inactive) | 23 µM (inactive) |  | 12.6 µM (inactive) |  |
| O=C(O)Cn1ccc(=O)c2cc([N+](=O)[O-])ccc21 | > 100 µM (inactive) | 48.8 µM (inactive) | > 100 µM (inactive) | > 100 | > 100 µM (inactive) | > 100 µM (inactive) | > 100 µM (inactive) | > 100 µM (inactive) | > 100 µM (inactive) | > 100 µM (inactive) | > 100 µM (inactive) | > 100 µM (inactive) | > 100 µM (inactive) | > 100 µM (inactive) | > 100 µM (inactive) | > 100 µM (inactive) | > 100 µM (inactive) |  | > 100 µM (inactive) |  |
| Nc1nc(Cl)cc(Nc2ccc3c(c2)CCC3)n1 | > 100 µM (inactive) | 44.9 µM (inactive) | 43.8 µM (inactive) | 35.9 | 26.1 µM (inactive) | 36.1 µM (inactive) | > 100 µM (inactive) | > 100 µM (inactive) | 55.8 µM (inactive) | 45.4 µM (inactive) | 28.6 µM (inactive) | > 100 µM (inactive) | > 100 µM (inactive) | > 100 µM (inactive) | 91.4 µM (inactive) | > 100 µM (inactive) | 30.1 µM (inactive) | > 100 µM (inactive) | > 100 µM (inactive) |  |
